PMC8434491, “Targeting the Integrated Stress Response Kinase GCN2 to Modulate Retroviral Integration” (Molecules, 2021)
Read-outs that look alike come from different tables or passages of the source.

Experiments:
Type in all cases: biochemical
HIV-1 IN = biological target: T1, HIV-1 IN (Human immunodeficiency virus type 1 group M subtype B, UniProt P04585); assay: Integrase reaction, strand transfer (ST), gel-based; conditions: serial dilutions from 100 µM to 45.7 nM
T1 construct: Recombinant full-length IN was expressed in E. coli BL21 pLys; 6xHis; made in house; host or cells: E. coli BL21 pLys
Experimental: Oligonucleotides. Oligonucleotides were purchased from Integrated DNA Technologies, Inc. (Leuven, Belgium), purified on polyacrylamide gel through electro-elution and dissolve in water. 19T ([…]) and 21B ([…]) correspond to the cleaved and non-cleaved strands specifically recognized by HIV-1 IN. Radiolabeling of 19T at the 5′-end was performed with [γ-^32P] ATP (Perkin-Elmer, Villebon-sur-Yvette, France) using T4 polynucleotide kinase (Promega, Charbonnières-les-Bains, France), according to the manufacturers’ instructions. Unincorporated isotopes were removed using illustra microspin G-25 Columns (Cytiva life sciences, Amersham, Little Chalfont, United Kingdom). DNA duplexes were annealed using an equimolar ratio of the complementary strand 21B, heating to 95 °C, and slow cooling to room temperature.
Integrase reactions. IN reactions were carried out by adding molecules or an equivalent volume of 100% DMSO (dimethyl sulfoxide, used as the drug solvent) to a mixture of 20 nM duplex DNA (19T/21B) and 400 nM IN in 50 mM MOPS pH 7.2, 7.5 mM MgCl2, and 14 mM 2-mercaptoethanol. Reactions were performed at 37 °C for 1 h and quenched by addition of an equal volume (10 µL) of loading buffer [formamide containing 1% SDS (sodium dodecyl sulfate), 0.25% bromophenol blue, and xylene cyanol]. Reaction products were separated in 16% polyacrylamide denaturing sequencing gels. Dried gels were visualized using a FLA-5000 imaging system (Fujifilm). Densitometric analyses were performed using the ImageQuant 5.1 software (GE Healthcare, Chicago, IL, USA) and data analyzed using Prism 6.05 software (GraphPad, San Diego, CA, USA).

GCN2 [1] = biological target: T2, GCN2 (Homo sapiens, UniProt Q9P2K8); assay: In vitro phosphorylation assay: GCN2 activation (auto-phosphorylation); conditions: without IN, read-out: GCN2 auto-phosphorylation signal, % of the DMSO control
T2 construct: expressed as a truncated version (192-1024) in fusion after a glutathione S-transferase tag; purchased SignalChem E12-11G
T2 sequence (Q9P2K8 192-1024): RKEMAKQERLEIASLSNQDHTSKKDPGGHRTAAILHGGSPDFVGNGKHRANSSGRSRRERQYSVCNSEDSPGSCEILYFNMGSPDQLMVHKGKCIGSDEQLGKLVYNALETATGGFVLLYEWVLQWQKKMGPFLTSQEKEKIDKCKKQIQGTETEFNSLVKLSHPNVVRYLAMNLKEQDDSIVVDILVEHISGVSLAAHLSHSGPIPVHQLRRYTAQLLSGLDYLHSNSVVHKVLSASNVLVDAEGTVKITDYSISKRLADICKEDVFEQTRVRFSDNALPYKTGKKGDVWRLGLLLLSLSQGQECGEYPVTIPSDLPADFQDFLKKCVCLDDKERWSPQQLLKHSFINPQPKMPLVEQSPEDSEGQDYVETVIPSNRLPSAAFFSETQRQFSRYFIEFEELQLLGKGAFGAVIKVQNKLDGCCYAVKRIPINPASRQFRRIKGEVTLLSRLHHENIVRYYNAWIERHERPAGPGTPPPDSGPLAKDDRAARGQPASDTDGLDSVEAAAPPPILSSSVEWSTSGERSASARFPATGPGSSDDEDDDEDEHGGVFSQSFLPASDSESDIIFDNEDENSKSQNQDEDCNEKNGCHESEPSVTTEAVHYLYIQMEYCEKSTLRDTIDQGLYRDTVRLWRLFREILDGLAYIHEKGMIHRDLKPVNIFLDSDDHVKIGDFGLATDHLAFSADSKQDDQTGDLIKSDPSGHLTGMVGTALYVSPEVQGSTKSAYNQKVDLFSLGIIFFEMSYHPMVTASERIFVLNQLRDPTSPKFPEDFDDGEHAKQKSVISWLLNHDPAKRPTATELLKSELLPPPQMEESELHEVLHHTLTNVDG

GCN2 [2] = biological target: T2, GCN2; assay: as above; conditions: with IN
Description: Enzymes. GCN2 was purchased from SignalChem (EIF2AK4, cat. #E12-11G). This human recombinant protein was expressed as a truncated version (192-1024) in fusion after a glutathione S-transferase tag (approximate molecular weight of 132 kDa). Recombinant full-length IN was expressed in E. coli BL21 pLys (IPTG induction) and purified on a nickel chelating column, as described. Integrity and purity were checked by direct Coomassie coloration of elution fractions on SDS-PAGE before dialysis to remove imidazole. Protein concentration was determined using a NanoDrop 2000 with the following parameters: molecular weight: 34 kDa, extinction coefficient ϵ = 50,460 mol^−1cm^−1L.
In vitro phosphorylation assay. Phosphorylation of IN (700 nM) was carried out using 25 nM of GCN2 in a reaction buffer containing 10 mM Tris-HCl pH 7.5, 50 mM NaCl, 15 mM MgCl2, 7.5 mM MnCl2, 10 mM DTT, 0.005% Nonidet P-40, 100 µM ATP, 50 µCi/µL of [γ-^32P]-ATP (3000 Ci/mmole, Perkin Elmer). Reactions (20 µL) were stopped after a 60 min incubation at 30 °C by adding 10 µL of loading buffer [80 mM Tris-HCl pH 6.8, 100 mM DTT, 10% glycerol, 1% sodium dodecyl sulfate (SDS) and 0.05% bromophenol blue]. Samples were then loaded onto a 10% denaturating SDS-PAGE. After protein separation (120 V for 120 min) the gel was stained using Coomassie Brilliant Blue R-250. Autoradiography was performed using an imaging plate (Fujifilm, Tokyo, Japan) and images were obtained with a FLA-5000 Imaging System (Fujifilm).

O=C1c2c(O)ccc(O)c2C(=O)c2c(NCCNCCO)ccc(NCCNCCO)c21 [NSC279836, Mitoxantrone]
concentrations giving full inhibition of ST activity (HIV-1 IN; only IN present): above 11 µM
effect on IN strand transfer activity (HIV-1 IN; only IN present): active
apparent IC50, ST activity (HIV-1 IN; in words): low-micromolar range
remaining activity at 100 µM (GCN2 [1]): 145%
remaining activity at 100 µM (GCN2 [2]; 100 µM, read-out: GCN2 auto-phosphorylation signal, % of the DMSO control): 171%
effect on GCN2 auto-phosphorylation in dose-response (GCN2 [2]; serial dilutions from 300 µM to 137 nM): reproducible increase
